Activity calls are given as the source filed them.
Key:
Galanin receptor type 2 = Galanin receptor type 2 (Homo sapiens, UniProt O43603); test: Dose Response cell-based high-throughput screening assay to identify antagonists of galanin receptor 2 (GALR2). [Related pubchem assays: 828, 866 ]; format: functional
[1] = Dd2 parasite growth inhibition in erythrocytes – SYBR Green, dry powder samples, set 9, dose response (AID 1159568); format: functional, cell-based
[2] = glucagon-like peptide-1 release potency in STC-1, concentration-response, half-maximal inhibitory concentration in the STC-1 line (AID 1117345); format: functional, cell-based
[3] = Potency on glucagon-like peptide 1 release, dose-response in NCI-H716 cell line, half maximal inhibitory concentration (AID 1117344); format: functional, cell-based
[4] = biological target: Aryl hydrocarbon receptor (Homo sapiens, UniProt P35869); test: Luminescence-based cell-based high throughput dose response assay for activators of the Aryl Hydrocarbon Receptor (AHR). [Related pubchem assays: 2796 (Primary screen (AHR activators in singlicate)), 2845 (Confirmation screen (AHR activators in triplicate)), 434939 (Counterscreen (PXR activators in triplicate)), 2804 (Summary (AHR activators))]; format: ADME
NADPH oxidase 1 = NADPH oxidase 1 (Homo sapiens, UniProt Q9Y5S8); test: Late-stage luminescence-based cell-based dose response assay to identify inhibitors of NADPH oxidase 1 (NOX1): Synthesized analogs.; format: functional
[5] = biological target: Complement C1s subcomponent (Homo sapiens, UniProt P09871); test: Complement C1s ELISA. [Related pubchem assays: 538, 787 ]; format: functional
Prothrombin = Prothrombin (Homo sapiens, UniProt P00734); test: Thrombin 1536 HTS Dose Response Confirmation. [Related pubchem assays: 1046 (Thrombin 1536 HTS; hits were confirmed in this assay)]; format: functional
Genome polyprotein = Genome polyprotein (Hepatitis C virus, UniProt Q2Q167); test: disruption of hepatitis C core self-association – biochemical, TR-FRET, dose response (AID 2159); parameters: species or system Hepacivirus hominis;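 further: blocks dimerization of HCV core protein measured by TR-FRET between tagged core106 pairs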
Bcl-2-like protein 10 = biological target: T1, Bcl-2-like protein 10 (Homo sapiens, UniProt Q9HD36); test: Bcl-B/TR3 peptide binding disruption – biochemical, fluorescence polarization, FITC-TR3 peptide, selectivity assay for Bfl-1 inhibitor project, primary screen (AID 748);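 further: fluorescence polarization from a fluorescein-labelled TR3 peptide binding purified Bcl-B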
T1 sequence (Q9HD36 whole entry): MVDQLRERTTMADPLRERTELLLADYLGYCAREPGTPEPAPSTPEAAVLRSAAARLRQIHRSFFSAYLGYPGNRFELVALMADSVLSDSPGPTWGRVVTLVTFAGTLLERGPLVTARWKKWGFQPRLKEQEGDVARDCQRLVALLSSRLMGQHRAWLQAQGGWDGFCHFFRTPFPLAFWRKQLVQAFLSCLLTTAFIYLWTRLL

[6] = system: Streptococcus sp. 'group A'; test: Streptococcus pyogenes SK(-)GAS viability under kanamycin – luminescence, BacTiterGlo, confirmation, counter-screen for streptokinase expression inhibitor project, dose response (AID 1900); format: functional, organism-based
[7] = biological target: Induced myeloid leukemia cell differentiation protein Mcl-1 (Homo sapiens, UniProt Q07820); format: functional
Streptococcus = test: GAS UMAA2166 growth inhibition – luminescence, BacTiterGlo, counter-screen for streptokinase expression inhibitor project, dose response (AID 1915); format: functional, organism-based;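 further: potency for reduction of bacterial viability or growth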
Beta-galactosidase = Beta-galactosidase (Escherichia coli, UniProt Q8VNN2); test: detection-enzyme interference by beta-gal modulators – biochemical, E. coli enzyme, set 3, artefact control for CCR6 antagonist project, dose response (AID 504712); format: functional
Cysteine protease ATG4B = biological target: T2, Cysteine protease ATG4B (Homo sapiens, UniProt Q9Y4P1); format: functional;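 further: Fluorescence-based dose-response confirmation assay measuring inhibition of ATG4B activity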
T2 sequence (Q9Y4P1 whole entry): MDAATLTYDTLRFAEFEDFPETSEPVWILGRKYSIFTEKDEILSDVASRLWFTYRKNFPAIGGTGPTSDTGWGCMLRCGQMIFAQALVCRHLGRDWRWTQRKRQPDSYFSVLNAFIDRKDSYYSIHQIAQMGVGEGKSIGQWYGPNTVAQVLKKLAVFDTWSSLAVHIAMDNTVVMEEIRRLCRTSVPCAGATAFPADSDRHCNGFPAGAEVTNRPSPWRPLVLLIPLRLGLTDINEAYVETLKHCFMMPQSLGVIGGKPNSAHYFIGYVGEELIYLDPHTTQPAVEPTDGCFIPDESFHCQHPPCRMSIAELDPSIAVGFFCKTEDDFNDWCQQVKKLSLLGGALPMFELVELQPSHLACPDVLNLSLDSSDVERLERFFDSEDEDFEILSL

Phospholipase A2 = Phospholipase A2 (Homo sapiens, UniProt P04054); format: functional;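 further: confirmatory dose-response counterscreen on phospholipase A2, testing hits that came from an ultra-high-throughput screen for ATG4B inhibitors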
[8] = biological target: DNA (cytosine-5)-methyltransferase 1 (Homo sapiens, UniProt P26358); test: inhibition of DNA methylation by DNMT1 – biochemical, fluorescent molecular beacon, confirmation (AID 602386); format: functional
[9] = biological target: Serine/threonine-protein phosphatase PP1-alpha catalytic subunit (Homo sapiens, UniProt P62136); test: inhibition of protein phosphatase 1 activity – biochemical, fluorescence, dose response (AID 2394)
[10] = biological target: Serine/threonine-protein phosphatase (Homo sapiens, UniProt Q9BPW0); test: inhibition of protein phosphatase 5 activity – biochemical, fluorescence, dose response (AID 2395)
Vero [11] = test: inhibition of WNV-induced cytopathic effect – cell-based, CPE readout (AID 1621); format: functional; conditions: Chlorocebus sabaeus
Vero [12] = test: cells; format: functional, cell-based; conditions: Chlorocebus sabaeus
Vero [13] = test: cells; format: functional; conditions: Chlorocebus sabaeus
[14] = luciferase reporter signal suppression in cells – H4 neuroglioma cells, luminescence, dose response (AID 1990); format: functional, cell-based
[15] = Luminescence Cell-Based Dose Response HTS to Identify Inhibitors of 5'UTR Stem-Loop Driven Prion Protein mRNA Translation in H4 Neuroglioblastoma Cells. [Related pubchem assays: 1827 (Project Summary), 1813 (Primary HTS)]; format: functional
[16] = alpha-synuclein stem-loop luciferase translation blockers – H4 neuroglioma cells, luminescence, confirmation (AID 1988); format: functional, cell-based
[17] = biological target: Luciferin 4-monooxygenase (Photinus pyralis, UniProt P08659); test: inhibition of purified Photinus pyralis luciferase – biochemical, luminescence, dose response (AID 1891)
[18] = Luminescence Cell-Based Dose Confirmation HTS to Identify Inhibitors of Platelet Dense Granule Release. [Related pubchem assays: 1663 (Primary HTS), 1678 (Summary of Project)]; format: functional
[19] = Fluorescence Cell-Based Dose Response to Identify Inhibitors of Thrombin Receptor-Activating Peptide SFLLRN-Mediated P-Selectin Induction on Platelets. [Related pubchem assays: 1663 (Primary HTS), 1889 (retest at dose ), 1891 (counterscreen), 1678 (Project Summary)]; format: functional
[20] = biological target: Voltage-gated inwardly rectifying potassium channel KCNH2 (Homo sapiens, UniProt Q12809); test: concentration-dependent hERG rescue from blockers – cell-based, thallium flux, dose response (AID 2121); format: ADME
[21] = biological target: T3, Long-chain-fatty-acid--AMP ligase FadD28 (Mycobacterium tuberculosis, UniProt P9WQ59); test: Fluorescence polarization aasay to screen for inhibitors that compete for the binding of FadD28 to a bisubstrate Measured in Biochemical System Using Plate Reader - 2147-01_Inhibitor_Dose_CherryPick_Activity.; format: functional, Mycobacterium tuberculosis H37Rv
T3 sequence (P9WQ59 whole entry): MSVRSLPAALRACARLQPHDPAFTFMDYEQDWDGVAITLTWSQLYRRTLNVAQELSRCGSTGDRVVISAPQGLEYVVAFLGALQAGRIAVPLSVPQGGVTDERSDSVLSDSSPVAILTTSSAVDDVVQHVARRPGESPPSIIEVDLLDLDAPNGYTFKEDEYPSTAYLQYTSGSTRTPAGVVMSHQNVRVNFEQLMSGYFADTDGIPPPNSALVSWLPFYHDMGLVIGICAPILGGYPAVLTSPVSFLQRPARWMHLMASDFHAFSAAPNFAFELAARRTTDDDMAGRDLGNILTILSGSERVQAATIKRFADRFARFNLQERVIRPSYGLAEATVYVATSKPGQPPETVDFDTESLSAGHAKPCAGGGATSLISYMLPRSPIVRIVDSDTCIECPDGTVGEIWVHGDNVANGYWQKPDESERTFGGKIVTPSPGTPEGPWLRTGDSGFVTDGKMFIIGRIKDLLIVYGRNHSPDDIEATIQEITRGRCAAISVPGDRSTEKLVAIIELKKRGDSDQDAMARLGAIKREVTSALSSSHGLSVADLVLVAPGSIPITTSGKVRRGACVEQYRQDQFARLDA

[22] = HIV-1 Vif–A3G interaction blockers – biochemical, TR-FRET, GST-Vif 1-94, biotin-A3G peptide, dose response retest, primary screen (AID 1117319); format: functional;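 further: TR-FRET signal of purified GST-Vif binding a biotinylated A3G peptide; inhibitors lower the FRET signal by blocking Vif and A3G binding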

Chain of Serine/threonine-protein phosphatase (Q9BPW0 whole entry): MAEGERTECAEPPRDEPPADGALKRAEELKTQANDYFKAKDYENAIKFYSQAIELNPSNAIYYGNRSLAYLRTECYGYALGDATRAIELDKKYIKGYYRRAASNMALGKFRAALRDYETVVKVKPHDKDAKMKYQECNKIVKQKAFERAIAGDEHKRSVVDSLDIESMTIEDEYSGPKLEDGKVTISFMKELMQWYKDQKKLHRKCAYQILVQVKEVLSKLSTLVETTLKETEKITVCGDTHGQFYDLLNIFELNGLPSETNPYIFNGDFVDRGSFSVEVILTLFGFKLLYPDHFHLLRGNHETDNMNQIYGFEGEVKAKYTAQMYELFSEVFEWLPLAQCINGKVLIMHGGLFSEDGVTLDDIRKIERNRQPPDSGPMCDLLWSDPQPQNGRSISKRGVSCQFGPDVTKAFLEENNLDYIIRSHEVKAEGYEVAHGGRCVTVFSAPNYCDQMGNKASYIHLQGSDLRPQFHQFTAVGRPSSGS
Chain of Luciferin 4-monooxygenase (P08659 whole entry): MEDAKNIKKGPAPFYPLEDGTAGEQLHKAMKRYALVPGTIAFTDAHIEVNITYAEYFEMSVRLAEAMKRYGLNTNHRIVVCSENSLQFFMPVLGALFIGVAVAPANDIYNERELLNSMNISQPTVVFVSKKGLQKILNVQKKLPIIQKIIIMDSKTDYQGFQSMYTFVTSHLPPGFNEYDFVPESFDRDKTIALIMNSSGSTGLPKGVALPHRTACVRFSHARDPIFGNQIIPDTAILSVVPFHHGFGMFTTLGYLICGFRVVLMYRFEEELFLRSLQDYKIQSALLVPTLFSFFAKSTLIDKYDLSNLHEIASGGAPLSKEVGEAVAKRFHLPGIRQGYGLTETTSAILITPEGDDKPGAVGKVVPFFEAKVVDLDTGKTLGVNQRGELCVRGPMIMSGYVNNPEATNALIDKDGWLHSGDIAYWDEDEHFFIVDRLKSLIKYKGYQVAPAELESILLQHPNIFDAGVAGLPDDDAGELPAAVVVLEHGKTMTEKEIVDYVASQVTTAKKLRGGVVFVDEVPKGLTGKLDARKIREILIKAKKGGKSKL
Chain of Beta-galactosidase (Q8VNN2 whole entry): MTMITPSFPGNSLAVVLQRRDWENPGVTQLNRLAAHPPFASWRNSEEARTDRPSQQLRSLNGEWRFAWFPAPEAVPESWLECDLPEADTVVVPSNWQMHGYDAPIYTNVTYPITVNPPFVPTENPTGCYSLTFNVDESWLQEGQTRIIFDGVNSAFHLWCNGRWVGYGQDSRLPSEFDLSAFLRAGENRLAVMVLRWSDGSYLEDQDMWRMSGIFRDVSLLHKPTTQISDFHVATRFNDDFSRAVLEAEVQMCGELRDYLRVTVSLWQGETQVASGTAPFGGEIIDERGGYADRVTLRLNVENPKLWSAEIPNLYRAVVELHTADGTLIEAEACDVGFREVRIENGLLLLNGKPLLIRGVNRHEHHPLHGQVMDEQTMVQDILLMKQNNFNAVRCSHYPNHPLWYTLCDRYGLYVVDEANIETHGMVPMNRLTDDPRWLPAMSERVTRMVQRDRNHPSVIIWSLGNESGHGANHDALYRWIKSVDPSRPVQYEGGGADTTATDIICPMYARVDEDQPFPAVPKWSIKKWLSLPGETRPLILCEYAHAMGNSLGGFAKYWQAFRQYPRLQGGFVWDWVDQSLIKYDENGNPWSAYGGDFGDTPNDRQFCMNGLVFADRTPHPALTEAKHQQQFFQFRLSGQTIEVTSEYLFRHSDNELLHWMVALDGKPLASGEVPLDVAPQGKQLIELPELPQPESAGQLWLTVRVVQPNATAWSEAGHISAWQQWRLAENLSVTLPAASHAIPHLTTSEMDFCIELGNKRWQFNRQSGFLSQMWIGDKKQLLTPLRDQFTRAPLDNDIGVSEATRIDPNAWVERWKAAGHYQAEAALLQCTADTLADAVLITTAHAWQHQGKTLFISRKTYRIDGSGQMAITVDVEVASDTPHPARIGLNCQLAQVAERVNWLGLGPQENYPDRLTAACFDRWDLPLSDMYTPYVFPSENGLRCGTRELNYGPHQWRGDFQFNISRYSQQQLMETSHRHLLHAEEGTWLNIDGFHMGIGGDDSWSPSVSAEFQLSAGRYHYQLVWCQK
Chain of Voltage-gated inwardly rectifying potassium channel KCNH2 (Q12809 whole entry): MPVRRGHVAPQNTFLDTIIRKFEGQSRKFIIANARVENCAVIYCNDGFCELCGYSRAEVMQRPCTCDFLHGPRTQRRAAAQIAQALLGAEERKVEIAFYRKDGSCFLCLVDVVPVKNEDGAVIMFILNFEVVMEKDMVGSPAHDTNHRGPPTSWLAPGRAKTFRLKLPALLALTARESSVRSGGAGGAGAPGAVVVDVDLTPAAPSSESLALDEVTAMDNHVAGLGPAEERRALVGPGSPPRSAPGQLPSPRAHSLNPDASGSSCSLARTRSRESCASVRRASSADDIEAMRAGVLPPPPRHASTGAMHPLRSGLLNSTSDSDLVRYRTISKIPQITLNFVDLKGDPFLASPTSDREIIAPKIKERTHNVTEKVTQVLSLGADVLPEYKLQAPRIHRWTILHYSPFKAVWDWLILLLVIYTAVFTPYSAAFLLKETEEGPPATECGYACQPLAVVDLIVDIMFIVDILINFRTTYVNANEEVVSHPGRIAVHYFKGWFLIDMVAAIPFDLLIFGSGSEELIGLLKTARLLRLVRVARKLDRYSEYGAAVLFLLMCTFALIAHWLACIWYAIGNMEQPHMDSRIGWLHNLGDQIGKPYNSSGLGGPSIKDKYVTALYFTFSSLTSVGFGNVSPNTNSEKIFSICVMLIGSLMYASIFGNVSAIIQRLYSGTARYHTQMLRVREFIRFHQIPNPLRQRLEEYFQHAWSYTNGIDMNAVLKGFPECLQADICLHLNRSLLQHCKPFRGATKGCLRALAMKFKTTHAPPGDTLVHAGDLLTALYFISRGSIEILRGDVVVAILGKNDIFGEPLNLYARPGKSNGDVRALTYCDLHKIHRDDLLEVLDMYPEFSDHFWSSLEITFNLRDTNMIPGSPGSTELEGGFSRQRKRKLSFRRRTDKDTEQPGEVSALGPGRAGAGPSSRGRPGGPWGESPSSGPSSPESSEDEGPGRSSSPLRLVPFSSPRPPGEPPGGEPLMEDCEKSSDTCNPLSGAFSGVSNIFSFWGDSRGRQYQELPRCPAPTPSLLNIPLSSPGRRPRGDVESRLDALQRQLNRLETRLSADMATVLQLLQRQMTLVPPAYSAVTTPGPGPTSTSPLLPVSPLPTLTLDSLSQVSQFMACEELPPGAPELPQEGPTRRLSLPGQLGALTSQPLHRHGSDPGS
Chain of DNA (cytosine-5)-methyltransferase 1 (P26358 whole entry): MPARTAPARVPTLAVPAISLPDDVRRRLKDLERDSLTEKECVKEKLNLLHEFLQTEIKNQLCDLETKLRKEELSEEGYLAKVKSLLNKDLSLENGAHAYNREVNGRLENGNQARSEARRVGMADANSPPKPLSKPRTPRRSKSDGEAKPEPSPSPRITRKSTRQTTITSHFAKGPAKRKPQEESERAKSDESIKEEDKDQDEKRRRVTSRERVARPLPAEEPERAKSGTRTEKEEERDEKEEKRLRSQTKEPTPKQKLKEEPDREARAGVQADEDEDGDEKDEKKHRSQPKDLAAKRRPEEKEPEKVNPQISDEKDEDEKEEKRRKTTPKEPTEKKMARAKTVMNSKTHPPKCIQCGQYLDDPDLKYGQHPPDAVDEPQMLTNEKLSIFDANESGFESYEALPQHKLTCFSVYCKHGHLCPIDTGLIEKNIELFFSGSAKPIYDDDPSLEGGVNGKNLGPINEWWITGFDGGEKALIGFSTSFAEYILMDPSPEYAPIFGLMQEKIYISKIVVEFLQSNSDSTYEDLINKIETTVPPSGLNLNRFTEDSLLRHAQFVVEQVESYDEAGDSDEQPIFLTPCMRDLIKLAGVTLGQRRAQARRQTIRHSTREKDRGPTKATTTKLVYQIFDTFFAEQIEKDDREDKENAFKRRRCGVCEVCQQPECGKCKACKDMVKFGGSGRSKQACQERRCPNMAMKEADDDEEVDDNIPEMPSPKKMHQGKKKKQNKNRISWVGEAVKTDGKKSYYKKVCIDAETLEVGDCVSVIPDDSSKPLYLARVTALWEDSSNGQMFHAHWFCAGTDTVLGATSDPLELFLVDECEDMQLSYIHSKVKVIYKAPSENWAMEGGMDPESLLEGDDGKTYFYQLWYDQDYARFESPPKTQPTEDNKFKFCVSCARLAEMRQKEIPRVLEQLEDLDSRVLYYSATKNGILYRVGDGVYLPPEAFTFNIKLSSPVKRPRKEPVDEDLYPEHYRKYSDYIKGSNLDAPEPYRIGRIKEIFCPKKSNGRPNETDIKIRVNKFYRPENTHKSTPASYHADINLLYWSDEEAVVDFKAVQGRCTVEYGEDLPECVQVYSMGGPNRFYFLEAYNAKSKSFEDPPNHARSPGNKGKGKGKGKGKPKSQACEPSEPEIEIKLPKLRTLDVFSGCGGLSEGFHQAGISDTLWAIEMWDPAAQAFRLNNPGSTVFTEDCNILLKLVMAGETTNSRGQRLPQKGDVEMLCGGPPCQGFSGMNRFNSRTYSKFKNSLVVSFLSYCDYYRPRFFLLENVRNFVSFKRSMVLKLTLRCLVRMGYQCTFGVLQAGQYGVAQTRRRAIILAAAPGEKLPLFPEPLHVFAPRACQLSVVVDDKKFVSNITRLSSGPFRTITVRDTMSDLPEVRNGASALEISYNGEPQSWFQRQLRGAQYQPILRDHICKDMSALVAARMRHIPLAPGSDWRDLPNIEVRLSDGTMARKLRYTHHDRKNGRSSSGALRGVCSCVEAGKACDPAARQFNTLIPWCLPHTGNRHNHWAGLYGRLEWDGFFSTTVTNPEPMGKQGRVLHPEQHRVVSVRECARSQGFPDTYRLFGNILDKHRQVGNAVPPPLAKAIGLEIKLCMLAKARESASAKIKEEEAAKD
Chain of Phospholipase A2 (P04054 whole entry): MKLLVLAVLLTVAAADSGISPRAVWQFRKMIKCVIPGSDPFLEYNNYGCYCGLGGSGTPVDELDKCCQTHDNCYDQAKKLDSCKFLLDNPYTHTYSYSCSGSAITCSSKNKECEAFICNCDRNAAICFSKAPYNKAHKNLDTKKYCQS

Cc1nnc(SCC(=O)Nc2cccc(S(=O)(=O)N(C)c3ccccc3)c2)s1
IC50 (Galanin receptor type 2): > 42 µM (not active)

O=C(Nc1ccccc1F)N1CCCCN2[C@H](C1)[C@H](c1ccc(/C=C/c3ccccc3)cc1)[C@@H]2CO
AC50 [1]: 3.61 µM (active)

Oc1cccc2cccnc12
IC50 [2]: > 20 µM (inactive) | IC50 [3]: > 40 µM (inactive)

COc1ccc(/C=N/NC(=O)c2cccc(NC(=O)c3ccc(F)cc3)c2)c(C(=O)O)c1OC
EC50 [4]: 5.48 µM (active)

O=C(c1ccco1)N1c2ccccc2Sc2ccccc21
IC50 (NADPH oxidase 1): 6.37 µM (active)

COc1ccc(-c2nc(SC)n(C(=O)c3ccco3)n2)cc1
IC50 [5]: > 50 µM (not active) | IC50 (Prothrombin): 1.14 µM (active)

CCOc1cc(/C=C2\C(=O)N(c3nc(-c4ccc(Br)cc4)cs3)N=C2c2ccccc2)ccc1O
IC50 (Genome polyprotein): > 49.8 µM (not active) | IC50 (Bcl-2-like protein 10): 43.8 µM (active) | EC50 [6]: 1.78 µM (active) | IC50 [7]: 2.54 µM (active) | EC50 (Streptococcus): 3.67 µM (active) | IC50 (Beta-galactosidase): > 66.6 µM (inactive) | IC50 (Cysteine protease ATG4B): 5.08 µM (active) | IC50 (Phospholipase A2): 6.97 µM (active) | IC50 [8]: 4.35 µM (active)

O=C(O)c1[nH]nnc1-c1ccccc1
IC50 [9]: > 67 µM (not active) | IC50 [10]: 13 µM (not active)

Cc1ccc(S(=O)(=O)N(C)C)cc1NC(=O)c1cncc(Br)c1
IC50 (Vero [11]): 32 µM (active) | IC50 (Vero [12]): > 25 µM (active) | CC50 (Vero [13]): > 25 µM (active)

COc1cc2c(cc1OC)-c1cc(Nc3ccccc3C)nc(=O)n1CC2
EC50 [14]: 15.6 µM (active) | EC50 [15]: 49.5 µM (active) | EC50 [16]: 17.8 µM (active) | EC50 [17]: > 112 µM (not active) | EC50 [18]: 0.24 µM (active) | EC50 [19]: < 0.3 µM (active)

Cc1nn(-c2cccc3ccccc23)c(O)c1/C=N/c1sc2c(c1C#N)CCC2
EC50 [20]: 6.13 µM (active) | AC50 [21]: 91.8 µM (active)

COc1cccc(-c2cc(C(=O)Nc3cnn(Cc4ccccc4C)c3)no2)c1
IC50 [22]: > 100 µM (active)
